What was measured:
Format in all cases: cell-based
MCF7 cells = assay: Total number of cells N in taxol treated MCF7 cells; details: for killing of cells (total number of cells): all drug doses (10 nm to 5 um)
From the text: (§1) Many cells (typically >1,000) over a very large field of view were imaged. At least two stainings were used simultaneously. An optional third staining, here propidium iodide (PI), was also used as a nuclear locator.
(§2) The cells were imaged in 3 channels which corresponded to the three stainings. The third channel was used for cell profiling. In a first data processing step, cells were automatically identified in the images by their signal and/or shape in one or both of the recorded channels. Alternatively, cells were identified using a nuclear counterstain and then the activator(s) were read. […] From the distributions S1(c) and S2(c), characteristic numbers were derived. For example (at the example of channel 1, same valid for channel 2).
(§3) The imaging and analysis procedure were repeated for cells which were fixed at different time points t and under influence of different drug doses dd. For every condition (time point and drug dose), the parameters above were determined.
Hela, MCF7, as well as primary cells from a patient were cultured for growth in this assay. Cells were obtained and seeded initially at ˜100 cells per well/96 well plate . The cells were grown in DMEM, with 10% Fetal Falf Serum, ultra pure, along with 5% Pen/Strep. The cells after being plated were placed in an incubator at […]. with 5% CO2 and grown for a period of 28 hours to allow for adhesion and division . If the cell took to the plate and were growing normally they were allowed to continue for an additional 24 hours. Cells were then treated with either Taxol, Doxirubicin, or Ionizing Radiation or a combination of all 3. All drugs were added in the logarithmic titrations shown in the data at time point zero. The cells were then collected (fixed with −20 degree methanol for 7 minutes, washed with PBS, washed again and stored in PBS until the entire plate of titrations were finished. After collection, the nucleus of each cell was stained using PI (far RED) by adding PI for 15 minutes and then washing 3× the cells with sterile PBS . Once the nuclei had been stained, each well was stained for either phosphor ATM or gamma H2AX or both using primary antibodies at a dilution of 1:1000 in a PBS/Block mix for 1 hour at 37 degrees. The cell were then washed 3× with PBS and then treated with the appropriate secondary . Here, the experiment first staining for only one marker using a green label so that the read was unpolluted by any other color that could show cross reactivity with the green (as there is RED, PI staining the nucleus already, which has no cross reactivity), once the data was collected and the data satisfied that the independent signal was reproducible, a double staining was performed by adding the second marker and using a orange dye with a wavelength of 555. […]

γH2AX = assay: Fraction of γH2AX positive cells in taxol treated MCF7 cells (multi-well immunofluorescence imaging)
From the text: as §1, §2
Fraction of positive cells: F1=N1+/N
as §3
(§4) Hela, MCF7, as well as primary cells from a patient were cultured for growth in this assay. Cells were obtained and seeded initially at ˜100 cells per well/96 well plate . The cells were grown in DMEM, with 10% Fetal Falf Serum, ultra pure, along with 5% Pen/Strep. The cells after being plated were placed in an incubator at […]. with 5% CO2 and grown for a period of 28 hours to allow for adhesion and division . If the cell took to the plate and were growing normally they were allowed to continue for an additional 24 hours. […] Here, the experiment first staining for only one marker using a green label so that the read was unpolluted by any other color that could show cross reactivity with the green (as there is RED, PI staining the nucleus already, which has no cross reactivity), once the data was collected and the data satisfied that the independent signal was reproducible, a double staining was performed by adding the second marker and using a orange dye with a wavelength of 555. […]

p-ATM = assay: Average p-ATM signal per cell in taxol treated MCF7 cells
From the text: as §1, §2
Average signal of all cells: <S1>
as §3
as §4, with “hours. Cells were then treated with either Taxol, Doxirubicin, or Ionizing Radiation or a combination of all 3.” for “hours.”

For `CC(=O)O[C@H]1C(=O)[C@@]2(C)[C@H]([C@H](OC(=O)c3ccccc3)[C@]3(O)C[C@H](OC(=O)[C@H](O)[C@@H](NC(=O)c4ccccc4)c4ccccc4)C(C)=C1C3(C)C)[C@]1(OC(C)=O)CO[C@@H]1C[C@@H]2O` [Taxol], the “killing of the entire cell population” value (MCF7 cells; 5 um dose) was “does not kill the entire population”, the “time point at which cell killing was most effective” value (MCF7 cells; all drug doses) was 4 h and the “killing of cells (total number of cells)” value (MCF7 cells) was “all treatments were effective in killing cells”. The “killing of cells (total number of cells)” value (MCF7 cells; listed as taxol) was “kill cells in a titration dependent fashion”, the “time point at which γH2AX fluorescence reaches its lowest point” value (γH2AX; 5 um dose) was 12 h and the Emax (γH2AX; Homo sapiens, all 4 doses 10 nm, 100 nm, 1 um and 5 um, 1 hour pulse, 4 hour post treatment time point, read-out: maximum response, induction rate of γH2AX (fraction of γH2AX positive cells)) was roughly 100%. For the same compound, the “effective on a population” value (γH2AX; highest dose) was 30%, the “time at which average p-ATM signal per cell is lowest” value (p-ATM; 5 uM) was “approximately 4 hours” and the “p-ATM fluorescent signal, initial elevation (maximum)” value (p-ATM; 5 um dose) was roughly 2300 a.u. The “p-ATM fluorescent signal, lowest point” value (p-ATM; 5 um dose, within 4 hours) was roughly 1000 a.u.

— patent US20120195488A1, “Methods and Compositions Related to Cellular Assays” (University of utah Research Foundation, priority 2009, published 2012)
